From patent US20080221094A1, “Metalloprotease inhibitors containing a squaramide moiety” (priority 2007, published 2008)

Molecular target: T1, MMP-13 (Homo sapiens, UniProt P45452)
T1 construct: 10 μL of a 50 nM stock solution of catalytic domain of MMP-13 enzyme; purchased Invitek (Berlin) 30100812
Test: Assay for Determining MMP-13 Inhibition
Format: biochemical
Details: catalytic domain of MMP-13, fluorescent substrate
Protocol: The typical assay for MMP-13 activity is carried out in assay buffer comprised of 50 mM Tris, pH 7.5, 150 mM NaCl, 5 mM CaCl2 and 0.05% Brij-35. Different concentrations of tested compounds are prepared in assay buffer in 50 μL aliquots. 10 μL of a 50 nM stock solution of catalytic domain of MMP-13 enzyme (produced by Alantos or commercially available from Invitek (Berlin), Cat.# 30100812) is added to the compound solution. The mixture of enzyme and compound in assay buffer is thoroughly mixed and incubated for 10 min at room temperature. Upon the completion of incubation, the assay is started by addition of 40 μL of a 12.5 μM stock solution of MMP-13 fluorescent substrate (Calbiochem, Cat. No. 444235). The time-dependent increase in fluorescence is measured at the 320 nm excitation and 390 nm emission by automatic plate multireader. The IC50 values are calculated from the initial reaction rates.

Compound: Nc1c(N2CCc3ccc(CNC(=O)c4cnc5ccccc5n4)cc3C2)c(=O)c1=O [2/50]
- IC50: < 500 nM

Compound: Nc1c(N2CCc3ccc(CNC(=O)c4nc(O)nc5ccccc45)cc3C2)c(=O)c1=O [Example 1]
- IC50: < 500 nM
